Results on 13 compounds are retold here after patent US10189842B2 (Agency for Science, Technology and Research, priority 2013, dated 2019).

Series [1] has as its system HEK293-STF3A cells. Kind of series: STF3A assay (luciferase reporter). Particulars: Homo sapiens, 24 h, 1 day of treatment. In kind it is cell-based, Human. In short, it runs like this: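 HEK293 cells carrying the STF reporter and expressing Wnt3A, seeded 2×10^4 per well overnight, then treated 1 day with compound at final 50 μM to 1.5 nM. Luciferase activity read by luminescence after Steady-Glo reagent, 10 min at room temperature.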

Series [2] concerns MMTV-Wnt1 tumor. As to the kind of experiment: MMTV-Wnt1 mouse model. In kind it is in vivo. The note with it: for tumor growth: treated mice, FIG. 2 and FIG. 3; for % T/C / % TGI / NTRD / T/C / TRD: Day 14. How it is done:
8-10 weeks old Female BALBc mice were anesthetised with 150 mg/kg Ketamine+75 mg/kg Xylazine. Under aseptic conditions, skin near the 4th mammary fat pad was incised. Mammary fat pad was tweaked with forceps and tumor fragment ˜2 mm^3 was implanted. The incision was closed using a tissue adhesive. Animals were randomised into groups of eight and treated daily with the test compounds for 14 days. Tumors were measured in two dimensions using calipers, and volume was calculated using the formula: Tumor Volume (mm^3)=[…]. Maximum tumor volume limit was 2000 mm^3.

The test system of series [3] is mammalian PORCN. Kind of series: PORCN-null HT1080 cells transfected with mammalian PORCN, WNT3A, STF reporter. In kind it is cell-based. The note with it: luciferase, FIG. 1. How it is done:
PORCN-null HT1080 cells were transfected with mammalian or Xenopus PORCN expression plasmids, along with WNT3A, STF reporter and mCherry as transfection control. 6 hours after transfection, cells were treated with the compounds or DMSO as indicated, and the following day assayed for luciferase. Xenopus PORCN was resistant to the inhibitory effects of compounds.

The subject of series [4] is AsPC-1 cells. As to the kind of experiment: Soft agar assay, AsPC-1. In kind it is cell-based. The note with it: for pIC50: Homo sapiens, ASPC1. How it is done: (§1) AsPC-1 cells were maintained in RPMI164 supplemented with 10% FBS, 2 mM L-glutamine and P/S (100 units/ml penicillin and 100 μg/ml streptomycin). HPAF-II cells were maintained in MEM (Eagles′) supplemented with 10% FBS, 2 mM L-glutamine and P/S (100 units/ml penicillin and 100 μg/ml streptomycin). CFPAC-1 cells were maintained in Iscove MEM supplemented with 10% FBS, 2 mM L-glutamine and P/S (100 units/ml penicillin and 100 μg/ml streptomycin).
(§2) 600 μl of 0.6% agar was added to 24-well plate to form the base layer. Then a middle layer of 0.36% agar (containing 5000 cells and serially diluted compound) was added on to the base layer. Finally 500 μl of fresh growth medium was added to the top of the middle layer. The plates were incubated at 37° C. with 5% carbon dioxide in a humidified incubator for 2 weeks. Formation of colonies was observed using a light microscope. When the colony size was larger than 500 μm, 70 μl MTT (5 mg/ml) was added to each well and the plates were incubated at 37° C. for at least 2 hours. Colonies were counted with GelCount® instrument. The colony counts were plotted against compound concentrations using the GraphPad Prism software. The software was also used to perform non-linear curve fitting and calculation of compound concentration that inhibited 50% colony formation.

Series [5] deals with HPAF-II cells. Kind of series: Soft agar assay, HPAF-II. In kind it is cell-based. The note with it: for pIC50: Homo sapiens. How it is done:
as §1, §2

Series [6] concerns V5-tagged Wnt3a. Kind of series: Wnt3A palmitoylation assay. It counts as cell-based. Particulars: 100 nM compound, HeLa cells, FIG. 4. The text has this: Wnt3A Palmitoylation Assay:
The assay used to determine the inhibition of the palmitoylation of Wnts by compound was described by Yap et al, (Yap MC, Kostiuk MA, Martin DD, Perinpanayagam MA, Hak PG, Siddam A, Majjigapu JR, Rajaiah G, Keller BO, Prescher JA, Wu P, Bertozzi CR, Falck JR, Berthiaume LG. 2010. Rapid and selective detection of fatty acylated proteins using omega-alkynyl-fatty acids and click chemistry. J Lipid Res. 51(6):1566-1580) with some modification. 3×10^6 HeLa cells were seeded in 10 cm culture dish and incubated at 37° C. overnight. […] After six hours, the cells were washed with PBS and treated with 100 μM alkyne palmitate in medium with 5% BSA. 100 nM compound or DMSO was added and the cells were incubated overnight at 37° C. The cells were lyzed and 600 μg cell lysate was collected and incubated with anti-V5 antibody (Invitrogen) followed by the pull down of V5-Wnt3a with the addition of Protein A/G agarose beads (Thermo scientific). The pulled down lysates containing V5-Wnt3a was click-reacted with biotin-azide (Invitrogen). The biotin-labelled protein lysate was then separated on SDS-PAGE and transferred to a nitrocellulose membrane. The membrane was incubated with primary anti-V5 antibody, followed by secondary anti-mouse Dylight 680 (Thermo scientific) to detect V5-Wnt3a. […]

Series [7] deals with CFPAC-1 cells. As to the kind of experiment: Soft agar assay, CFPAC-1. The note with it: for pIC50: Homo sapiens. In kind it is cell-based. The procedure: as §1, §2

pIC50: −log10 of the molar value. Like-named read-outs stand apart in the source and are kept apart here.

As to `Cc1cncc(-c2ccc(NC(=O)CCC(=O)N3CCCn4nc(C)cc43)cn2)c1` [Compound 110, N-(5′-methyl-2,3′-bipyridin-5-yl)-4-(2-methyl-6,7-dihydropyrazolo[1,5-a]pyrimidin-4(5H)-yl)-4-oxobutanamide], the pIC50 in series [1] is over 7.00. Further, the tumor growth result in series [2] was “decreased tumor growth in all the treated mice”. For the same compound, the “inhibition of the activity of mammalian porcupine” value in series [3] is “inhibit the activity of mammalian porcupine”.

As to `Cc1cc2n(n1)CCCN2C(=O)CCC(=O)Nc1ccc(-c2cccnc2)nn1` [Compound 51, 4-(2-methyl-6,7-dihydropyrazolo[1,5-a]pyrimidin-4(5H)-yl)-4-oxo-N-(6-(pyridin-3-yl)pyridazin-3-yl)butanamide], the Maximum inhibition in series [4] (AsPC-1) was 76%; in series [5] it was 97%; in series [7] (CFPAC-1), 79%. For the same compound, the pIC50 was 7.62 in series [4] (AsPC-1, Test 1, read-out: Test 1 IC50 (colony growth inhibitory concentration)); 8.00 in series [4] (AsPC-1, Test 2, read-out: Test 2 IC50 (colony growth inhibitory concentration)); 7.77 in series [4] (AsPC-1, mean of two independent experiments, read-out: Mean IC50 (colony growth inhibitory concentration)); over 7.00 in series [1]; 8.10 in series [5] (Test 1, read-out: Test 1 IC50 (colony growth inhibitory concentration)); 8.00 in series [5] (Test 2, read-out: Test 2 IC50 (colony growth inhibitory concentration)). The pIC50 was 8.05 in series [5] (mean of two independent experiments, read-out: Mean IC50 (colony growth inhibitory concentration)); 7.24 in series [7] (CFPAC-1, Test 1, read-out: Test 1 IC50 (colony growth inhibitory concentration)); 7.41 in series [7] (CFPAC-1, Test 2, read-out: Test 2 IC50 (colony growth inhibitory concentration)); 7.31 in series [7] (CFPAC-1, mean of two independent experiments, read-out: Mean IC50 (colony growth inhibitory concentration)). The results for the “% T/C” value in series [2] (1 mg/Kg daily), in series [2] (3 mg/Kg daily) and in series [2] (10 mg/Kg daily) were 37.5%, 38.3% and 16.0%, respectively. Moreover, the “% TGI” value was 68% in series [2] (1 mg/Kg daily), 67% in series [2] (3 mg/Kg daily) and 91% in series [2] (10 mg/Kg daily). Further, the NTRD is reported as 1/8 in series [2] (1 mg/Kg daily), 0/8 in series [2] (3 mg/Kg daily) and 0/8 in series [2] (10 mg/Kg daily). The T/C in series [2] (1 mg/Kg daily) was found to be 0.375; in series [2] (3 mg/Kg daily), 0.383; in series [2] (10 mg/Kg daily), 0.160. Further, the TRD in series [2] (1 mg/Kg daily), in series [2] (3 mg/Kg daily) and in series [2] (10 mg/Kg daily) was 0/8 throughout. Further, the tumor growth entry in series [2] is given as “decreased tumor growth in all the treated mice”. Further, the “inhibition of the activity of mammalian porcupine” value in series [3] is given as “inhibit the activity of mammalian porcupine”. In addition, the “Palmitoylation of Wnt3a” value in series [6] was “inhibited”.

In series [1], `Cc1cncc(-c2ncc(NC(=O)CCC(=O)N3CCCn4nc(C)cc43)cc2F)c1` [Compound 158, N-(3-fluoro-5′-methyl-[2,3′-bipyridin]-5-yl)-4-(2-methyl-6,7-dihydropyrazolo[1,5-a]pyrimidin-4(5H)-yl)-4-oxobutanamide] had a pIC50 of over 7.00.

With `Cc1cc2n(n1)CCCN2C(=O)CCC(=O)Nc1ccc(-c2ccccc2)nc1` [Compound 43, 4-(2-methyl-6,7-dihydropyrazolo[1,5-a]pyrimidin-4(5H)-yl)-4-oxo-N-(6-phenylpyridin-3-yl)butanamide], the pIC50 in series [1] is over 7.00.

Compound `Cc1cncc(-c2cnc(NC(=O)CCC(=O)N3CCCn4nc(C)cc43)cn2)c1` [Compound 124, 4-(2-methyl-6,7-dihydropyrazolo[1,5-a]pyrimidin-4(5H)-yl)-N-(5-(5-methylpyridin-3-yl)pyrazin-2-yl)-4-oxobutanamide] showed a pIC50 in series [1] of over 7.00.

With `Cc1cc2n(n1)CCCN2C(=O)CCC(=O)Nc1ccc(-c2cncc(C(F)(F)F)c2)cn1` [Compound 118, 4-(2-methyl-6,7-dihydropyrazolo[1,5-a]pyrimidin-4(5H)-yl)-4-oxo-N-(5′-(trifluoromethyl)-[3,3′-bipyridin]-6-yl)butanamide], in series [1], the pIC50 was over 7.00.

Take `Cc1cc2n(n1)CCCN2C(=O)CCC(=O)Nc1cc(-c2ccc(Cl)c(Cl)c2)no1` [Compound 7, N-(3-(3,4-dichlorophenyl)isoxazol-5-yl)-4-(2-methyl-6,7-dihydropyrazolo[1,5-a]pyrimidin-4(5H)-yl)-4-oxobutanamide]: the pIC50 in series [1] is under 5.00.

As to `Cc1cc2n(n1)CCCN2C(=O)CCC(=O)Nc1ccc(-c2ccncc2)cc1` [Compound 36, 4-(2-methyl-6,7-dihydropyrazolo[1,5-a]pyrimidin-4(5H)-yl)-4-oxo-N-(4-(pyridin-4-yl)phenyl)butanamide], in series [1], the pIC50 is over 6.00.

Turning to `Cc1ccc(-c2ccc(NC(=O)CCC(=O)N3CCCn4nc(C)cc43)nc2)cn1` [Compound 121, N-(6′-methyl-3,3′-bipyridin-6-yl)-4-(2-methyl-6,7-dihydropyrazolo[1,5-a]pyrimidin-4(5H)-yl)-4-oxobutanamide], the pIC50 in series [1] is over 7.00.

Turning to `Cc1cc2n(n1)CCCN2C(=O)CCC(=O)Nc1ccc(-c2cnco2)cc1` [Compound 24, 4-(2-methyl-6,7-dihydropyrazolo[1,5-a]pyrimidin-4(5H)-yl)-N-(4-(oxazol-5-yl)phenyl)-4-oxobutanamide], the pIC50 in series [1] is over 5.30.

`Cc1ccc(-c2ccc(NC(=O)CCC(=O)N3CCCn4nc(C)cc43)cc2)cc1` [Compound 60, 4-(2-methyl-6,7-dihydropyrazolo[1,5-a]pyrimidin-4(5H)-yl)-N-(4′-methyl-[1,1′-biphenyl]-4-yl)-4-oxobutanamide] showed a pIC50 in series [1] of over 7.00.

On to `Cc1cncc(-c2cnc(NC(=O)CCC(=O)N3CCCn4nc(C)cc43)cc2C)c1` [Compound 120, N-(4,5′-dimethyl-3,3′-bipyridin-6-yl)-4-(2-methyl-6,7-dihydropyrazolo[1,5-a]pyrimidin-4(5H)-yl)-4-oxobutanamide], for which the pIC50 in series [1] is over 5.30.

In the case of `Cc1cc2n(n1)CCCN2C(=O)CCC(=O)Nc1ccc(-c2nccs2)cn1` [Compound 26, 4-(2-methyl-6,7-dihydropyrazolo[1,5-a]pyrimidin-4(5H)-yl)-4-oxo-N-(5-(thiazol-2-yl)pyridin-2-yl)butanamide], in series [1], the pIC50 is over 7.00.
